The source of these data is patent publication US8383111B2, “Inotropic antibodies and therapeutic uses thereof” (priority 2002, dated 2013).

In series [1] the test system is (Na^++K^+)-ATPase. Put plainly: Immunofluorescent staining of antibody in rat cardiac myocytes and CV-1 cells. The format is binding, rat; African green monkey. The note with it: for competition with the Jianye-2 antibody binding site (Jianye-2 antibody staining in presence of competitor): 1 mM ouabain or strophanthidin. The source says:
FIG. 1 (which includes FIGS. 1A through 1F) are photographs showing the immunofluorescent staining of Jianye-2 antibody in rat cardiac myocytes and African green monkey CV-1 cells, FIGS. 1A-1B are photographs of the confocal image of rat cardiac myocytes in the presence of Jianye-2 (FIG. 1A) or with both Jianye-2 antibody and peptide blocker (FIG. 1B). […] FIG. 1D is a photograph of a single CV-1 cell image at 3000× FIGS. 1E-1F are photographs showing Jianye-2 antibody staining in the presence of either 1 mM ouabain (FIG. 1E) or strophanthidin (FIG. 1F).
Confocal image of rat cardiac myocytes in the presence of Jianye-2, shown in FIG. 1A or with both Jianye-2 antibody and peptide blocker (FIG. 1B). […] Jianye-2 antibody staining in the presence of either 1 mM ouabain (FIG. 1E) or strophanthidin (FIG. 1F). […] Time runs from left to right. […] Columns B, C, D show the results obtained 10, 20, 30 min after administration of either buffer (upper panel) or Jianye-2 antibody (lower panel, 85 nM). Enzyme activity was monitored in cell homogenates under the same experimental condition. […] The data represent a mean of 12 independent experiments. […] The data represent a mean of four independent experiments.

The test system of the next series is heart failure rats. Put plainly: Immunization with KX-1 peptide vaccine in heart failure rat model (echocardiography). It is filed as in vivo. The note with it: peptide injected as vaccine, TiterMax Gold adjuvant, vs control heart failure rat without immunization. The procedure: FIG. 9 is a graph showing the effect of immunization with KX-1 on the rat cardiac heart failure function. The peptide DVEDSYGQQWTYEQR (SEQ ID NO: 2) was injected into the animal as a vaccine to reduce the rate of progression of heart failure in the heart failure rat model. TiterMax Gold was used as an adjuvant throughout the experiment.
Echocardiography (Echo) uses sound waves to form a picture of the heart valves and heart muscle. The Echo machine sends sound waves to a transducer (a sound sensitive instrument) that is placed on the animal's chest. The sound waves are reflected by the heart was (muscle) and heart valves and back to the transducer, which changes the sound into a picture. Gel is applied on the rat chest and a transducer is placed over the heart area. Heart structures are examined by changing the direction of the transducer. The sound waves cause no discomfort. Thus, an Echo detects the changes and provides information about heart chamber size, wall motion, valve movements, and structural changes in and around the heart.

For series [2], the system named is mouse heart left ventricle. Put plainly: Measurement of mice cardiac contraction in vivo (pressure-volume catheter). How it is done: Male wild-type mice (CD1, Charles River, 32-40 g) were utilized for this study. Mice In vivo cardiac functions were assessed by pressure-volume catheter in anesthetized mice. Briefly, mice were induced with 5% isofluorane, anesthetized with an intraperitoneal injection of urethane (300-500 mg/kg), etomidate (5 mg/kg) and morphine (0.5 mg kg-1), and intubated with a blunt 19 G needle inserted via tracheostomy. […] Ventilation was initiated with 100% oxygen using a custom-designed, constant flow ventilator delivering a tidal volume of […] at 120 breaths per min. The left external jugular vein was cannulated with a 30 G needle connected to an infusion pump. Modest volume expansion was provided (150 µL of 12.5% human albumin) at 50 µL/min. Following stabilization, a lateral incision was made at the xyphoid cartilage to expose the left ventricular (LV) apex. The 1.4F pressure-volume catheter (SPR-839, Millar Instruments Inc., Houston, Tex., USA) was inserted via an apical needle puncture with a 26 G needle, and advanced along the cardiac long axis. A 2F pacing catheter (NuMed, Nicholville, N.Y., USA) was placed in the esophagus, dorsal to the left atrium. Atrium was paced using 5-7 V, 2 ms pulses (SD25, Grass Instruments, Quincy, Mass., USA). Calibration of the volume signal was performed using a 5-10 µL bolus of 30% hypertonic saline injected into the jugular vein to determine the signal offset and ultrasound flow probe (AT01RB, Transonic Systems Inc.) placed around the thoracic aorta to determine signal gain. Data were digitized at 2 kHz and stored to disk for off line analysis.
Mice cardiac atria pacing were maintained at constant beating (600 beats/min). The hearts were infused with PBS (5 µl/min) for 10 min prior for administration of SSA78 infusion (5 µl/min) for 30 minutes and following by 10 min PBS washout at 5 µl/min. […] Steady-state indices were derived from 10 consecutive averaged beats. Cardiac preload was indexed as the left ventricular end-diastolic volume (EDV) and end-diastolic pressure (EDP). Cardiac afterload was evaluated as effective arterial elastance (Ea; ratio of LV systolic pressure to stroke volume). This parameter is not preload dependent and had been validated to closely approximate total afterload, which incorporates systemic vascular resistance, aortic impedance, and the reflected wave properties of the vasculature. Myocardial contractility was indexed by cardiac output (CO), dPdt max, dPdt max normalized to instantaneous developed pressure (dPdt max/IP), the load-independent end-systolic pressure-volume relationship (Ees) and preload recruitable stroke work (PRSW). Diastolic perform performance was measured by dPdt min and the time constant of ventricular relaxation.

Another series concerns rat cardiac myocytes. The series is described as follows: Measurement of intracellular Ca2+ transients. It is filed as cell-based. Particulars: rat heart cells; mean of 12 independent experiments. How it is done: Rat cardiac myocytes were loaded with 50 µg of a cell permeable fluorescent Ca.2+ probe, Indo-1/acetoxymethyl-ester (Indo-1/AM, Molecular Probes, Inc., Eugene, Oreg.) for 10 min and then resuspended in HEPES-buffered solution in the presence of 1 mM Ca.2+ and stored in the dark at room temperature for 60 min before be utilized for the experiments. The Indo-1 loaded cells were placed on the stage of a modified inverted microscope (model IM-35; Carl Zeiss, Inc., Thornwood, N.Y.) equipped for simultaneous recording of Indo-1 fluorescence and cell length. Cells were electrically paced at 0.5 Hz at room temperature and the excitation wavelength was selected by a 350-nm interference filter (bandwidth 10 nm; Oriel Corp., Stratford, Conn.). The ratio of emission intensity at 410 nm to that at 490 nm was computed offline as an index of intracellular Ca.2+ (Cai^2+) transient. The peak amplitude of the transient is defined as the difference of the 410:490 fluorescence ratio before and after electrical stimulation with or without antibody.

In a further series the test system is rat ventricular myocytes. Put plainly: Measurement of cell contraction in isolated rat ventricular myocytes. It is filed as cell-based. The procedure:
Ventricular cardiac myocytes were isolated from adult Sprague-Dawley rats (2-3 months old; weight 225-300 g) using standard enzymatic techniques. Briefly, following anesthesia (sodium pentobarbital, 100 mg/kg), the heart was quickly removed from the chest and aortic perfused at constant pressure (100 cmH2O) at 37° C. for 3 minutes with a Ca^2+-free bicarbonate-based buffer containing 120 mM NaCl, 5.4 mM MgSO4, 1.2 mM NaH2PO4, 5.6 mM glucose, 20 mM NaHCO3, and 5 mM taurine, in the presence of O2 (95%)-CO2 (5%). The enzymatic digestion was initiated by adding collagenase (Worthington Type II, 1 mg/ml) to the perfusion solution. Calcium (50 µM) was added to the enzyme solution when the heart became swollen. About 7 minutes later, the left ventricle was quickly removed, cut into several pieces, and further digested on a shaker (60-70 rpm) for 10 minutes in the same enzyme solution. The supernatant containing the dispersed myocytes was filtered into a test tube and gently centrifuged at 500 rpm for 1 minute. […]
Cardiac myocytes were isolated from wild-type adult Sprague-Dawley rats, using a standard enzymatic method described previously (Xu, K. Y., et al., (2002) BBRC, 289:167-172). […] Cell length was monitored from the bright-field image (650 nm to 750 nm red light illumination) by an optical edge-tracking method using a photodiode array (model 1024 SAQ, Reticon) with a 3-ms time resolution. […]

Series [3] concerns the target T1, (Na^++K^+)-ATPase (Rattus norvegicus, UniProt P06685).
T1 construct: Rat cardiac sarcolemmal (SL) vesicles were isolated from rat heart muscle by sucrose flotation method; from tissue; host or cells: rat heart muscle (sarcolemmal vesicles, SDS treatment and sucrose gradient)
The series is described as follows: Determination of (Na^++K^+)-ATPase activity. It is filed as biochemical. Particulars: monitored in cell homogenates under the same experimental condition as contraction.

Entries after “also recorded” stand apart in the source; their conditions may differ. Read-outs that look alike come from different tables or passages of the source.

For `C[C@@H]1O[C@@H](O[C@H]2C[C@@H](O)[C@]3(CO)[C@H]4[C@H](O)C[C@]5(C)[C@@H](C6=CC(=O)OC6)CC[C@]5(O)[C@@H]4CC[C@]3(O)C2)[C@H](O)[C@H](O)[C@H]1O` [ouabain, reference compound], in the series with (Na^++K^+)-ATPase [1], the “competition with the Jianye-2 antibody binding site (Jianye-2 antibody staining in presence of competitor)” value was “compete with the Jianye-2 antibody binding site”.
Still for that read-out and setting: with `C[C@]12CC[C@H]3[C@@H](CC[C@]4(O)C[C@@H](O)CC[C@]34C=O)[C@@]1(O)CC[C@@H]2C1=CC(=O)OC1` [strophanthidin, reference compound] the entry was “compete with the Jianye-2 antibody binding site”.
As to “DVEDSYGQQWTYEQR [peptide of the H7-H8 domain of (Na++K+)-ATPase alpha-subunit, injected as vaccine to generate endogenous KX-1 antibody]”, the “rate of progression of heart failure (cardiac function)” value with heart failure rats is on record as “significantly decreased the progression of heart failure; also recorded: significantly delayed the rate of the progression of heart failure”.
In general, EC50 refers to the concentration at which the effect is half-maximal. “Jianye-2 antibody: polyclonal rabbit IgG recognizing the RSATEEEPPNDD (SEQ ID NO: 1) peptide (H1-H2 domain) of the alpha-subunit of (Na++K+)-ATPase”: the “first order rate constant of increase in mouse heart contraction” value in series [2] is recorded as 1.06 %/min; in series [2] (3.4 µM antibody) it was 1.06 %/min; in series [2] (6.0 µM antibody), 2.16 %/min; in series [2] (6.0 mM antibody), 2.16 %/min. For the same molecule, the “mouse heart contraction, percent of background control (0 min as 100%)” value in series [2] (3.4 µM antibody, 5 min) is 108(.+−.5.3) %; in series [2] (3.4 µM antibody, 10 min), 113(.+−.7) %; in series [2] (3.4 µM antibody, 15 min) it was 116(.+−.10) %; in series [2] (3.4 µM antibody, 20 min), 122(.+−.9.0) %; in series [2] (6.0 µM antibody, 5 min), 115(.+−.9.0) %; in series [2] (6.0 µM antibody, 10 min), 127(.+−.21) %. Also, the “mouse heart contraction, percent of background control (0 min as 100%)” value was 137(.+−.16) % in series [2] (6.0 µM antibody, 15 min); 143(.+−.30) % in series [2] (6.0 µM antibody, 20 min); 115(.+−.9.0) % in series [2] (6.0 mM antibody, 5 min); 127(.+−.21) % in series [2] (6.0 mM antibody, 10 min); 137(.+−.16) % in series [2] (6.0 mM antibody, 15 min); 143(.+−.30) % in series [2] (6.0 mM antibody, 20 min). Also, the “mouse heart contraction, percent of background control (0 min as 100%)” value in series [2] (5 min) is recorded as 108(.+−.5.3) %; in series [2] (10 min), 113(.+−.7) %; in series [2] (15 min), 116(.+−.10) %; in series [2] (20 min) it was 122(.+−.9.0) %. Besides, in series [2] (normal mouse heart left ventricle, 6.0 µM in PBS, pH 7.2, total 150 ml at 5 ml/min), the “positive inotropic effect (ventricular pressure-volume loops)” value is recorded as “dramatically induced a reversible positive inotropic effect”. In addition, in the series with rat cardiac myocytes, the “intracellular Ca2+” value is given as “markedly increased”. Also, the “rat heart cell contraction (time course)” value in the series with rat ventricular myocytes (85 nM antibody, 10, 20, 30 min after administration, vs buffer) is listed as “enhanced rat heart cell contraction”. Besides, the half-maximal effective concentration (EC50) with rat ventricular myocytes (dose-dependent contractile response in rat ventricular myocytes, mean of four independent experiments, read-out: half maximal contractile response (EC50)) came out at 35 nM. In the series with (Na^++K^+)-ATPase [3], the “(Na++K+)-ATPase activity” value is “without inhibiting”. Besides, in the series with (Na^++K^+)-ATPase [1] (rat cardiac myocytes and African green monkey CV-1 cells), the “binding to the (Na++K+)-ATPase on the surface of the cell membrane (immunofluorescent staining)” value is on record as “specifically binds; also recorded: binds to its antigenic site”.
